The results in this text go back to patent US20150320892A1, “IMAGING FIBROSIS” (GE Healthcare Limited, priority 2012, published 2015).

Where a name gives a salt, the structure may show the parent alone.

In one data set the target is T1, recombinant human DPP-IV (Homo sapiens, UniProt P27487).
T1 construct: purchased BPS Bioscience
The data set can be described thus: DPP-IV assay kit (BPS Bioscience), inhibition of enzymatic activity, Gly-Pro-AMC fluorogenic substrate. Format: biochemical. Particulars: 10 min, 22° C. On the procedure: (§1) The assay uses the fluorogenic substrate Gly-Pro-Aminomethylcoumarin (AMC) to measure either FAP or DPP-IV activity.
(§2) The enzyme activities were assayed in a total volume of 100 uL for 10 min (DPP-IV) and 30 min (FAP) at 22° C. The inhibitors were dissolved in DMSO. IC50 values were computed using GraphPad Prism 4.

The next data set has as its target T2, recombinant human FAP (Homo sapiens, UniProt Q12884).
T2 construct: purchased BPS Bioscience
T2 sequence (Q12884 1-760): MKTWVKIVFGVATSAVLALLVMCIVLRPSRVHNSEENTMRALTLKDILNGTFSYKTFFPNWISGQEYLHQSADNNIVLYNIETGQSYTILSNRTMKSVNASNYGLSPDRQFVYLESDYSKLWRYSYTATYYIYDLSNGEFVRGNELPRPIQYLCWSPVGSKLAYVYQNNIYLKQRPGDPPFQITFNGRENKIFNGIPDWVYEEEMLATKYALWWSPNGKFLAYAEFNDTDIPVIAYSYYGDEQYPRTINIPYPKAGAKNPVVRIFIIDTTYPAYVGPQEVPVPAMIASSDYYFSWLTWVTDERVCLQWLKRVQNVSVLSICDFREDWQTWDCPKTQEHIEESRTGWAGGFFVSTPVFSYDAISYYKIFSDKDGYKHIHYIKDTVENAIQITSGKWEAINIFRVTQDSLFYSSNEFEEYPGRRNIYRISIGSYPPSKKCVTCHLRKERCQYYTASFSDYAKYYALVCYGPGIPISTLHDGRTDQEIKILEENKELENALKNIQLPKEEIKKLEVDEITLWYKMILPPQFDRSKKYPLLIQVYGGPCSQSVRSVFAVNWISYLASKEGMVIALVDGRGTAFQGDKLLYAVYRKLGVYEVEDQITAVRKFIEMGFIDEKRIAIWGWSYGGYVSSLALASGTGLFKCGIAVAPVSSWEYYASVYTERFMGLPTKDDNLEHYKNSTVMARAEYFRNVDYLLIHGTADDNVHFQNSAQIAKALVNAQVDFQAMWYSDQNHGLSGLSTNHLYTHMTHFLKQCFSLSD
Briefly: FAP assay kit (BPS Bioscience), inhibition of enzymatic activity, Gly-Pro-AMC fluorogenic substrate. Format: biochemical. The settings on record: for IC50: recombinant human FAP, 30 min, 22° C. On the procedure:
as §1, §2

A short description of data set [1]: Biodistribution of 99mTc-Compound 2 in naive rats. On the set-up: species or system Male Sprague-Dawley rats. The settings on record: rat. On the procedure:
Male Sprague-Dawley rats (231±10 g) were group housed in batches of four, with ad libitum access to food and water. […] At various times post injection (2, 30, 60 and 120 minutes) animals were euthanised (n=3 per timepoint), dissected.
Data above are presented as % injected dose (mean±SD; n=3 animals per timepoint).

Data set [2] is described as follows: Metabolism study of Compound 2 in naive rats (plasma, HPLC). In kind it is in vivo, male rats. On the procedure: The in vivo metabolic profile of Compound 2 was determined after intravenous administration to male rats. Post mortem blood was obtained at 60 minutes post injection and centrifuged to separate plasma.
Analysis was carried out by HPLC with prior extraction of Compound 2 from plasma using solid phase extraction (HLB cartridges; Waters). Briefly, cartridges were conditioned with 5 ml, acetonitrile, followed by 2×5 mL water. Plasma was loaded onto the cartridge and then washed with water (2% acetonitrile). Compound 2 was eluted from the cartridge with 7.5 mL water (0.1% TFA) with acetonitrile (0.1% TFA) as a 50:50 ratio.
The extract was evaporated to dryness and reconstituted in 2 mL starting mobile phase (4% acetonitrile (0.1% TFA) and water (0.1% TFA).
0.5 mL of the reconstituted extract anlaysed by HPLC using the same analytical conditions as mentioned above in Example 3 for Compound 2.

T1 sequence (P27487 whole entry): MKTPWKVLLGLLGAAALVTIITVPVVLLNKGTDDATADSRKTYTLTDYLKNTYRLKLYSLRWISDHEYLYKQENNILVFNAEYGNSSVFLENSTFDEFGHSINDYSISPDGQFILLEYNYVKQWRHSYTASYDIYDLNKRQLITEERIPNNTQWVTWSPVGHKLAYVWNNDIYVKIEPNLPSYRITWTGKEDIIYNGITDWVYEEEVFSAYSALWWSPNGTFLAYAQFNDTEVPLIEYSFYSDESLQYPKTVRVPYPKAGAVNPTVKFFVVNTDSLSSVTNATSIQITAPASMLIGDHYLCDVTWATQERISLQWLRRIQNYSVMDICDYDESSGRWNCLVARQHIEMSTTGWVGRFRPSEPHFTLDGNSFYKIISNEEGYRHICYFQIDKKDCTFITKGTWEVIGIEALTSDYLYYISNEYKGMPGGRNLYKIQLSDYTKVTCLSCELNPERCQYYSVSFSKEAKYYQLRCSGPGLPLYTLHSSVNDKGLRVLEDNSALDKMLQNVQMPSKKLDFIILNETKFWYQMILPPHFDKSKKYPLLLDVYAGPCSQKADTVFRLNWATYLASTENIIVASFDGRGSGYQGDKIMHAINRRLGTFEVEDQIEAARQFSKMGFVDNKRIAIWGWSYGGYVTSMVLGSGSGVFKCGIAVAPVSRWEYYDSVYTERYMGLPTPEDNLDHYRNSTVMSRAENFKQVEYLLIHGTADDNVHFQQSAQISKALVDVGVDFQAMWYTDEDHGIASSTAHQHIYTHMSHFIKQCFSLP

On to “(R)-(1-(2-(6-(4-((2-aminoethyl)amino)-3-(((2-aminoethyl)amino)methyl)butanamido)hexanamido)acetyl)pyrrolidin-2-yl)boronic acid, dioxorhenium(V)salt [Compound 1]”, for which the IC50 – broadly, the point on the concentration scale where inhibition reaches its midpoint – was greater than 50 µM at recombinant human DPP-IV and 0.009 µM at recombinant human FAP. The “affinity for FAP (in words)” value at recombinant human FAP (in vitro assay) was “high and selective affinity for FAP”.
As for `N#Cc1ccc(NCCNCC(=O)N2CCCC2C#N)nc1` (centres unmarked) [DPP-IV reference, NVP DPP 728 hydrochloride, reference compound], the IC50 on recombinant human FAP is greater than 100 µM.
As to `NCCNCC(CNCCN)CC(=O)NCCCCCC(=O)NCC(=O)N1CCC[C@H]1B(O)O` [Compound 2, (R) (1-(2-(6-(4-((2-aminoethyl)amino)-3-(((2-aminoethyl)amino)methyl)butanamido)hexanamido)acetyl)pyrrolidin-2-yl)boronic acid], in data set [1], the “biodistribution for in vivo imaging purposes (in words)” value is “good biodistribution”. Besides, the “Compound 2 still present in the plasma sample” value in data set [2] (male rats, intravenous, plasma 60 minutes after injection) is reported as “Approximately 80%”. In addition, the “in vivo metabolic profile (in words)” value in data set [2] (rat, in vivo) is given as “good in vivo metabolic profile”.
On to `O=C(NCC(=O)N1CCC[C@H]1B(O)O)c1cccc2ccccc12` [FAP reference, (R)-(1-(2-(1-naphthamido)acetyl)pyrrolidin-2-yl)boronic acid, reference compound], for which, on recombinant human DPP-IV, the IC50 is greater than 50 µM.
